The test system of assay [1] is α-glucosidase from Saccharomyces cerevisiae (EC 3.2.1.20). As to the kind of experiment: α-glucosidase inhibitory effect (p-nitrophenyl α-D-glucopyranoside, absorbance 405 nm). It counts as biochemical. How it is done:
(§1) The inhibitory effect on α-glucosidase was measured using α-glucosidase from Saccharomyces cerevisiae (EC 3.2.1.20). A test sample was mixed with 80 μL enzyme buffer and 10 μL α-glucosidase and incubated for 15 min at 37 °C. Then, after the addition of 10 μL p-nitrophenyl α-D-glucopyranoside solution for enzyme reaction, the amount of p-nitrophenol that was cleaved by the enzyme was determined by measuring the absorbance at 405 nm in a 96-well microplate reader. Acarbose was used as a positive control. The antioxidant activity was evaluated by measuring the DPPH radical scavenging activity using ascorbic acid as a positive control.

Assay [2] in a line: antioxidant activity by DPPH radical scavenging. The note with it: for DPPH radical scavenging activity: at 50 μM; for antioxidant activity (in words): DPPH radical scavenging. How it is done: as §1
A general note: Loss of DPPH colour is used to gauge radical scavenging.

As for `CC(C)=CCc1c(O)c(O)cc2c(=O)c3c(O)cc(O)cc3oc12` [Compound 1, cochinchinone F], in assay [1], the “α-glucosidase inhibitory activity (in words)” value is on record as “reduced the efficacy”.

In the case of `CC(C)=CCc1c(O)cc2oc3cc(O)c(O)c(CC=C(C)C)c3c(=O)c2c1O` [Compound 6, γ-mangostin], the “DPPH radical scavenging activity” value in assay [2] was “more than 50%”.

For the compound `CC(C)=CCc1c(O)c(O)c(C/C=C(\C)CCCC(C)(C)O)c2oc3ccc(O)cc3c(=O)c12` [Compound 16, pruniflonone A], in assay [2], the “antioxidant activity (in words)” value is recorded as “weak efficacy”.

Turning to `COc1cc2c(=O)c3c(O)c(O)c(O)cc3oc2cc1O` [Compound 17, caloxanthone E], in assay [2], the “DPPH radical scavenging activity” value was “more than 50%”.

With `O=c1c2cc(O)c(O)cc2oc2cc(O)c([C@@H]3O[C@H](CO)[C@@H](O)[C@H](O)[C@H]3O)c(O)c12` [Compound 18, mangiferin], in assay [2], the “DPPH radical scavenging activity” value is recorded as “more than 50%”.

On to `O=C(c1ccccc1)c1cc(O)c(O)c(OC2OC(CO)C(O)C(O)C2O)c1` (stereo not drawn) [Compound 19, pruniflonone B], for which the “antioxidant activity (in words)” value in assay [2] is “weak effect”. Further, the “α-glucosidase inhibitory activity (in words)” value in assay [1] is given as “weak effect”.

Take `Oc1cc(O)c2c(c1)O[C@H](c1ccc(O)c(O)c1)[C@H](O)C2` [Compound 21, epicatechin]: the “α-glucosidase inhibitory activity (in words)” value in assay [1] was “good inhibition”.

Regarding isocudraniaxanthone B [Compound 3], in assay [2], the “DPPH radical scavenging activity” value is reported as “more than 50%”.

The values above are taken from PMC9952466, “Characterization of Antioxidant and α-Glucosidase Inhibitory Compounds of Cratoxylum formosum ssp. pruniflorum and Optimization of Extraction Condition” (Antioxidants, 2023).
